Source: patent US8022056B2, “Compositions and methods for the treatment of cancer” (Tautatis, Inc, priority 2006, dated 2011)

Tests used:
ACHN xenograft = test: Mouse xenograft model ACHN; assay type: in vivo; conditions: Kidney, CDKN2A; oral twice daily dosing
Description: (§1) The efficacy of the compound of the formula 1 was confirmed in mouse tumor xenograft models, employing the NMRI(nu/nu) strain of mice. For example, cells from the human tumor cell lines MDA-MB-231, U373, and HT29 were pre-incubated subcutaneously in several nude mice to select for the most robustly growing cell population. After having grown to a sufficient size after 2-3 weeks, a piece of about 2 mm^3 volume of the most suitable tumor was transplanted subcutaneously into the region of the thoracic mammary fat pads, an area ensuring a high degree of vascularization of the grafted tissue. […] During the course of the treatment, the weight of the animals and the size of the transplanted tumor was monitored three times a week. […] These doses are best determined separately for each individual mouse strain employed.
(§2) To establish a solid tumour 3×10^6 tumor cells suspended in 100 μl of serum free medium (RPMI) were inoculated subcutaneously into the region of the thoracic mammary fat pads of 5 Male NMRI(nu/nu) mice of 8-10 weeks of age. […] During the course of the treatment body weight changes and tumor growth were recorded three times a week. Growth curves were plotted together with standard deviations and the significance of differences was determined using an unpaired t-test in FIG. 11. […]

PC-3 xenograft = test: Mouse xenograft model PC-3; assay type: in vivo; conditions: Prostate, p53/PTEN; oral twice daily dosing
Description: as §1, §2

SK-MEL-5 xenograft = test: Mouse xenograft model SK-MEL-5; assay type: in vivo; conditions: Melanoma, Raf/CDKN2A; oral twice daily dosing
Description: as §1, §2

T-47D xenograft = test: Mouse xenograft model T-47D; assay type: in vivo; conditions: Breast, p53/PI3K; oral twice daily dosing
Description: as §1, §2

[1] = biological target: T1, ABC-B1 (glycoprotein gp170) (Homo sapiens, UniProt P08183); test: Competition with MDR-driven efflux of calcein-AM in Kb-V1 cells (FACS); assay type: cell-based
T1 construct: Kb-V1 cells expressing high levels of gp170; endogenous in cells; host or cells: Kb-V1 cells
T1 sequence (P08183 whole entry): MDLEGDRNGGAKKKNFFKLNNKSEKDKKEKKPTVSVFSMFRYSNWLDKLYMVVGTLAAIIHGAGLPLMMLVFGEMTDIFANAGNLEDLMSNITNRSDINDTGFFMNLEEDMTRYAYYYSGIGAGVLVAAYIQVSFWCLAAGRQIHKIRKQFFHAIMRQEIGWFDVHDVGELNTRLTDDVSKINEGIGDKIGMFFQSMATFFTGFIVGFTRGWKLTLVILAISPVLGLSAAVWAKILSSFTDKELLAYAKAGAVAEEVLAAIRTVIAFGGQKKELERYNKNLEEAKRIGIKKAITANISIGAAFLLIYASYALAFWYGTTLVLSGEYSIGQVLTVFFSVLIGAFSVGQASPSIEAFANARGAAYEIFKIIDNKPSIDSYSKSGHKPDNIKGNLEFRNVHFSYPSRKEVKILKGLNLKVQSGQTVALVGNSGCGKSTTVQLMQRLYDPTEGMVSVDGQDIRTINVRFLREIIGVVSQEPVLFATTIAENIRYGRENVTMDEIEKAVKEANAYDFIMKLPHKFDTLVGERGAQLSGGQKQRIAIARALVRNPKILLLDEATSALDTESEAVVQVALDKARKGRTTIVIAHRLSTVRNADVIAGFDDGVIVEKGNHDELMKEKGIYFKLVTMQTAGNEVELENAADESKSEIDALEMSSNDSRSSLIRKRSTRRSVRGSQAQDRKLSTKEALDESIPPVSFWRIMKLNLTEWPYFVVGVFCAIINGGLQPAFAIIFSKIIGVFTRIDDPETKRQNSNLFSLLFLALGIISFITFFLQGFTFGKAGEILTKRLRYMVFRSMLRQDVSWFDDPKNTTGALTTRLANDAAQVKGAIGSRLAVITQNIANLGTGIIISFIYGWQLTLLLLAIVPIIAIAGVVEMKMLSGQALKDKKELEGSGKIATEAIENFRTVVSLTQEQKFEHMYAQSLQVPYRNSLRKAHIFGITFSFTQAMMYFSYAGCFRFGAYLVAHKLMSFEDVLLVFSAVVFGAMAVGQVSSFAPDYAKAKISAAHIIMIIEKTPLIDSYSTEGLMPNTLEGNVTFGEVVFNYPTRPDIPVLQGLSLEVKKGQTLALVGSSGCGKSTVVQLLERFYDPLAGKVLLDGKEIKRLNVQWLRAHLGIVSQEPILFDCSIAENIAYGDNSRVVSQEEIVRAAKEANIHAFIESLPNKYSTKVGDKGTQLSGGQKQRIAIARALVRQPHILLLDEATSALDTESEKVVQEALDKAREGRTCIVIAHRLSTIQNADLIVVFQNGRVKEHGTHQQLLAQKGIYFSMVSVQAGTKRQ
Text: FIG. 6 compares the recognition of compound 1 and of the compound 6 by two frequently involved multi-drug resistance proteins ABC-B1 (glycoprotein gp170) (A), and ABC-G2 (breast cancer resistance protein BCRP) (B). Measurements were based on competition with the MDR-driven efflux of calcein-AM in Kb-V1 cells expressing high levels of gp170, or competition with the efflux of mitoxandrone in MCF-7 cells by the respective compounds within their effective concentration range. Uptake of fluorescent reporter compounds by competition with 1 or 6 was assessed by FACS as described in Mueller et al., Cancer Chemother. Pharmacol. 59, 157-164 (2007).

CDK1 = CDK1 (Homo sapiens, UniProt P06493); test: Kinase inhibition under standard conditions, CDK1; assay type: biochemical
Sequence of CDK1 (P06493 whole entry, species assumed): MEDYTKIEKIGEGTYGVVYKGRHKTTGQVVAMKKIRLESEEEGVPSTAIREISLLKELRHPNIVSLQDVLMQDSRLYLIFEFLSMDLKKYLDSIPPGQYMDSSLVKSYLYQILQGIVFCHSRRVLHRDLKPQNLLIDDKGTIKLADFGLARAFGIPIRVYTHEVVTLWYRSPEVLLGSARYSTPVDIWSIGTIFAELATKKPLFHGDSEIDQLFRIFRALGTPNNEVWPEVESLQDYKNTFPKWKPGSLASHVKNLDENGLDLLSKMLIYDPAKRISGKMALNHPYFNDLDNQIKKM
Sequence of CDK1 (P14635 whole entry partner, species assumed): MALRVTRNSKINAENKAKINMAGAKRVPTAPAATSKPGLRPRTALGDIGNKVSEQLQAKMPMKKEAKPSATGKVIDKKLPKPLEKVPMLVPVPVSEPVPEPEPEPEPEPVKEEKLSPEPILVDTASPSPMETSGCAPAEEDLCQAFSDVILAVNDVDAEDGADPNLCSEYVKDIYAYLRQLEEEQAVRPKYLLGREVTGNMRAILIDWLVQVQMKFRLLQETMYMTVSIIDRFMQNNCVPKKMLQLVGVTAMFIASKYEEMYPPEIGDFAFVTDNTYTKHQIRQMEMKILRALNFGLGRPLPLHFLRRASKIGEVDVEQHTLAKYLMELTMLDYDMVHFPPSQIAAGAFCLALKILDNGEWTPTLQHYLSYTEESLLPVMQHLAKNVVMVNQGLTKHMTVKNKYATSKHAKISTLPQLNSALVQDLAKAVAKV

PKA = test: Kinase inhibition under standard conditions, PKA; assay type: biochemical

CNC(=O)[C@@]1(N)C[C@H]2O[C@]1(C)n1c3ccccc3c3c4c(c5c6ccccc6n2c5c31)C(=O)NC4 [Compound 1]
Mean % Inhibition (ACHN xenograft): 86% | N tumors with no/neg. growth (ACHN xenograft): 5 of 10 | Mean % Inhibition (PC-3 xenograft): 68% | N tumors with no/neg. growth (PC-3 xenograft): 2 of 11 | Mean % Inhibition (SK-MEL-5 xenograft): 122% | N tumors with no/neg. growth (SK-MEL-5 xenograft): 7 of 10 | Mean % Inhibition (T-47D xenograft): 81% | N tumors with no/neg. growth (T-47D xenograft): 4 of 10 | separation of anti-proliferative potency range from uptake concentration for efflux transporter, versus compound 6 [1]: more clearly separated | IC50 (CDK1): 43 nM | IC50 (PKA): 300 nM
